According to US20090263509A1, “ANTIBACTERIAL AGENT AND ANTIBACTERIAL COMPOSITION” (SAKAMOTO BIO CO., LTD, priority 2004, published 2009):
Values after ≈ are worked out from the molar mass of the structure shown.

Assays:
Type in all cases: cell-based
[1] = test system: Aspergillus niger (IFO9455 ATCC16401); assay: Antimicrobial activity, agar medium dilution method (MIC / growth observation); set-up: key to Antibacterial Effect with Specimen Concentration: A: antibacterially effective; B: bacteriostatically active; C: some growth inhibiting effective; D: non effective
Description: (§1) Antimicrobial activity was assayed using the method described below. Paraben was used as a positive control. Staphylococcus aureus (IFO13276 ATCC6538), Candida albicans (IFO1594 ATCC10231), Aspergillus niger (IFO9455 ATCC16401), Pseudomonas aeruginosa (IFO013275 ATCC9027), Escherichia coli (IFO3972 ATCC8739) Antibacterial effect was evaluated by using either qualitative observation of the growing strains in the presence of each specimen or measuring the minimum inhibitory concentration (MIC) of the strains. An agar medium dilution method was adopted for the evaluation using Mueller-Hinton agar media (Eiken Chemical Co., Ltd.). The experiment was performed using the MIC test method following the standards of the Japanese Society of Chemotherapy. More specifically, each specimen was measured, when dissolved in 50/50 ethanol/water mixture and used to prepare 1 mL of each test specimen. 9 mL of measuring medium was added to the test specimens to create an agar plate. […] of the experimental bacterial liquid (live bacteria: 10^6-10^8/mL) was added to the agar plate. The growth and development of the bacteria was judged and recorded after it was cultured for 24 hours at 37° C. The minimum concentration that inhibited bacterial growth was regarded as MIC. The evaluation results of Example 1 are shown in Table 1 (MIC Rate) and Table 2 (Antibacterial Effect with Specimen Concentration). The MIC rates in Table 1 are given in μg/ml. […] The meaning of the symbols used in Table 2 is as follows: A: antibacterially effective, B: bacteriostatically active, C: some growth inhibiting effective, D: non effective.

[2] = test system: Candida albicans (IFO1594 ATCC10231); assay: as above; set-up: key to Antibacterial Effect with Specimen Concentration: A: antibacterially effective; B: bacteriostatically active; C: some growth inhibiting effective; D: non effective
Description: as §1

[3] = test system: Staphylococcus aureus (IFO13276 ATCC6538); assay: as above; set-up: key to Antibacterial Effect with Specimen Concentration: A: antibacterially effective; B: bacteriostatically active; C: some growth inhibiting effective; D: non effective
Description: as §1

[4] = test system: Escherichia coli (IFO3972 ATCC8739); assay: Antimicrobial activity, agar medium dilution method (MIC); details: Mueller-Hinton agar, 24 hours at 37° C.
Description: (§2) Antimicrobial activity was assayed using the method described below. Paraben was used as a positive control. Staphylococcus aureus (IFO13276 ATCC6538), Candida albicans (IFO1594 ATCC10231), Aspergillus niger (IFO9455 ATCC16401), Pseudomonas aeruginosa (IFO013275 ATCC9027), Escherichia coli (IFO3972 ATCC8739) Antibacterial effect was evaluated by using either qualitative observation of the growing strains in the presence of each specimen or measuring the minimum inhibitory concentration (MIC) of the strains. An agar medium dilution method was adopted for the evaluation using Mueller-Hinton agar media (Eiken Chemical Co., Ltd.). The experiment was performed using the MIC test method following the standards of the Japanese Society of Chemotherapy. More specifically, each specimen was measured, when dissolved in 50/50 ethanol/water mixture and used to prepare 1 mL of each test specimen. 9 mL of measuring medium was added to the test specimens to create an agar plate. […] of the experimental bacterial liquid (live bacteria: 10^6-10^8/mL) was added to the agar plate. The growth and development of the bacteria was judged and recorded after it was cultured for 24 hours at 37° C. The minimum concentration that inhibited bacterial growth was regarded as MIC. The evaluation results of Example 1 are shown in Table 1 (MIC Rate) and Table 2 (Antibacterial Effect with Specimen Concentration). […]

[5] = test system: Pseudomonas aeruginosa (IFO013275 ATCC9027); assay: as above; details: Mueller-Hinton agar, 24 hours at 37° C.
Description: as §2

[6] = specimen concentration 50 μg/ml
[7] = specimen concentration 500 μg/ml
[8] = Mueller-Hinton agar, 24 hours at 37° C.

Row | MIC [4] [µg/mL] | MIC [5] [µg/mL] | MIC [1, 8] [µg/mL] | MIC [2, 8] [µg/mL] | MIC [3, 8] [µg/mL] | SMILES | Antibacterial Effect with Specimen Concentration [1, 6] | Antibacterial Effect with Specimen Concentration [1, 7] | Antibacterial Effect with Specimen Concentration [2, 6] | Antibacterial Effect with Specimen Concentration [2, 7] | Antibacterial Effect with Specimen Concentration [3, 6] | Antibacterial Effect with Specimen Concentration [3, 7]
1 |  |  |  |  |  | COc1cc(O)c(OC)c(OC)c1C1COc2cc(O)ccc2C1 (centres unmarked) | C | A | C | C | D | C
2 |  |  |  |  |  | COC1=C(OC)C(=O)C(C2COc3c(ccc(O)c3OC)C2)=CC1=O (single isomer, unassigned) [Amorphaquinone, amorphaquinone] | C | A | B | A | A | A
3 |  |  |  |  |  | COc1ccc(C2COc3cc(O)ccc3C2)c(OC)c1O (single isomer, unassigned) [Mucronulatol, mucronulatol] | C | A | C | A | A | A
4 | 800 (≈ 5.79 mM) | 1000 (≈ 7.24 mM) | 300 (≈ 2.17 mM) | 500 (≈ 3.62 mM) | 800 (≈ 5.79 mM) | O=C(O)c1ccc(O)cc1 [Paraben, reference compound] |  |  |  |  |  | 
5 |  |  |  |  |  | COC1=C(OC)C(=O)C(C2COc3cc(O)ccc3C2)=CC1=O (centres unmarked) [Pendulone, pendulone] | C | A | C | A | A | A
